# Test results taken from US9376425B2, “Heterocyclic compounds as MDM2 inhibitors for the treatment of cancer” (AMGEN INC., priority 2011, dated 2016).
# Counter-ions that a name gives are not always drawn.
# Biological target: T1, human MDM2 (GST-hMDM2 1-188), interaction with biotinylated-p53 (1-83) (Homo sapiens, UniProt Q00987)
# T1 construct: Amino acid residues 1-188 of human MDM2 were expressed; made in house; host or cells: Escherichia coli
# Assay: improved HTRF assay (HTRF2 assay), inhibition of HDM2-p53 interaction
# Format: binding
# Conditions: 0.2 nM GST-hMDM2, 0.5 nM biotinylated-p53, 100 mM KF
# Outline: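 Time-resolved fluorescence (HTRF) read after >4 h equilibration with SA-XLent/anti-GST cryptate/KF detection reagents. Reaction: compound plus GST-hMDM2 for 20 min at room temperature, then E. coli-expressed biotinylated p53 residues 1-83 for 60 min, 2% DMSO final. Inhibition expressed versus nutlin-3.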
# T1 sequence (Q00987 1-188): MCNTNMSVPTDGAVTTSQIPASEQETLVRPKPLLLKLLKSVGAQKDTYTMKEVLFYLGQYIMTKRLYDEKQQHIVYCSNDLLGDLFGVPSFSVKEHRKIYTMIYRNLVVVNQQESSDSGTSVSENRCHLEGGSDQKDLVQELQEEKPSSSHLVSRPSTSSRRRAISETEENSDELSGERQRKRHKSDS
row,SMILES,IC50 [nM]
1,"CC(C)[C@@H](CN(c1ccccc1)S(=O)(=O)C1CC1)N1C(=O)[C@@H](CC(=O)O)O[C@H](c2cccc(Cl)c2)[C@H]1c1ccc(Cl)cc1 (single isomer, unassigned) [Example 192, 2-((2R,5R,6R)-6-(3-chlorophenyl)-5-(4-chlorophenyl)-4-((S)-3-methyl-1-(N-phenylcyclopropanesulfonamido)butan-2-yl)-3-oxomorpholin-2-yl)acetic acid or 2-((2S,5R,6R)-6-(3-chlorophenyl)-5-(4-chlorophenyl)-4-((S)-3-methyl-1-(N-phenylcyclopropanesulfonamido)butan-2-yl)-3-oxomorpholin-2-yl)acetic acid]",1
2,"CC[C@@H](CS(=O)(=O)C(C)(C)C)N1C(=O)C(CN)O[C@H](c2cccc(Cl)c2)[C@H]1c1ccc(Cl)cc1 (mixture of isomers) [Example 378, (2R,5R,6R)-2-(Aminomethyl)-4-((S)-1-(tert-butylsulfonyl)butan-2-yl)-6-(3-chlorophenyl)-5-(4-chlorophenyl)morpholin-3-one hydrochloride and (2S,5R,6R)-2-(aminomethyl)-4-((S)-1-(tert-butylsulfonyl)butan-2-yl)-6-(3-chlorophenyl)-5-(4-chlorophenyl)morpholin-3-one hydrochloride]",142
3,"O=C(O)C[C@H]1O[C@H](c2cccc(Cl)c2)[C@@H](c2ccc(Cl)cc2)N([C@H](CS(=O)(=O)Nc2ccccc2F)C2CC2)C1=O (single isomer, unassigned) [Example 295, 2-((2R,5R,6R)-6-(3-Chlorophenyl)-5-(4-chlorophenyl)-4-((S)-1-cyclopropyl-2-(N-(2-fluorophenyl)sulfamoyl)ethyl)-3-oxomorpholin-2-yl)acetic acid or 2-((2S,5R,6R)-6-(3-chlorophenyl)-5-(4-chlorophenyl)-4-((S)-1-cyclopropyl-2-(N-(2-fluorophenyl)sulfamoyl)ethyl)-3-oxomorpholin-2-yl)acetic acid]",2
4,"CC(C)(C)S(=O)(=O)C[C@H](C1CC1)N1C(=O)[C@@H](CC(N)=O)O[C@H](c2cccc(Cl)c2)[C@H]1c1ccc(Cl)cc1 (single isomer, unassigned) [Example 356, 2-((2R,5R,6R)-4-((S)-2-(tert-Butylsulfonyl)-1-cyclopropylethyl)-6-(3-chlorophenyl)-5-(4-chlorophenyl)-3-oxomorpholin-2-yl)acetamide or 2-((2S,5R,6R)-4-((S)-2-(tert-butylsulfonyl)-1-cyclopropylethyl)-6-(3-chlorophenyl)-5-(4-chlorophenyl)-3-oxomorpholin-2-yl)acetamide]",10
5,"CC(C)(C)S(=O)(=O)C[C@@H](C1CCC1)N1C(=O)[C@@H](CC(=O)O)O[C@H](c2cccc(Cl)c2)[C@H]1c1ccc(Cl)cc1 (single isomer, unassigned) [Example 272, 2-((2R,5R,6R)-4-((R)-2-(tert-Butylsulfonyl)-1-cyclobutylethyl)-6-(3-chlorophenyl)-5-(4-chlorophenyl)-3-oxomorpholin-2-yl)acetic acid or 2-((2S,5R,6R)-4-((R)-2-(tert-butylsulfonyl)-1-cyclobutylethyl)-6-(3-chlorophenyl)-5-(4-chlorophenyl)-3-oxomorpholin-2-yl)acetic acid]",154
6,"CC[C@@H](CS(=O)(=O)CC1CC1)N1C(=O)[C@@H](CC(=O)O)O[C@H](c2cccc(Cl)c2)[C@H]1c1ccc(Cl)cc1 (single isomer, unassigned) [Example 191, 2-((2R,5R,6R)-6-(3-chlorophenyl)-5-(4-chlorophenyl)-4-((S)-1-((cyclopropylmethyl)sulfonyl)butan-2-yl)-3-oxomorpholin-2-yl)acetic acid or 2-((2S,5R,6R)-6-(3-chlorophenyl)-5-(4-chlorophenyl)-4-((S)-1-((cyclopropylmethyl)sulfonyl)butan-2-yl)-3-oxomorpholin-2-yl)acetic acid]",5
7,"CC[C@@H](CS(=O)(=O)C(C)(C)CC)N1C(=O)[C@H](CC(=O)O)O[C@H](c2cccc(Cl)c2)[C@H]1c1ccc(Cl)cc1 (single isomer, unassigned) [Example 123, 2-((2S,5R,6R)-6-(3-Chlorophenyl)-5-(4-chlorophenyl)-3-oxo-4-((S)-1-(tert-pentylsulfonyl)butan-2-yl)morpholin-2-yl)acetic acid or 2-((2R,5R,6R)-6-(3-Chlorophenyl)-5-(4-chlorophenyl)-3-oxo-4-((S)-1-(tert-pentylsulfonyl)butan-2-yl)morpholin-2-yl)acetic acid]",1
8,"CC[C@@H](CS(=O)(=O)N1CCC[C@@H]1C)N1C(=O)[C@@H](CC(=O)O)O[C@H](c2cccc(Cl)c2)[C@H]1c1ccc(Cl)cc1 (single isomer, unassigned) [Example 208, 2-((2R,5R,6R)-6-(3-chlorophenyl)-5-(4-chlorophenyl)-4-((S)-1-(((S)-2-methylpyrrolidin-1-yl)sulfonyl)butan-2-yl)-3-oxomorpholin-2-yl)acetic acid or 2-((2S,5R,6R)-6-(3-chlorophenyl)-5-(4-chlorophenyl)-4-((S)-1-(((S)-2-methylpyrrolidin-1-yl)sulfonyl)butan-2-yl)-3-oxomorpholin-2-yl)acetic acid]",2
9,"CN(C)C(=O)C[C@H]1O[C@H](c2cccc(Cl)c2)[C@@H](c2ccc(Cl)cc2)N([C@H](CN(c2ccccc2F)S(=O)(=O)C2CC2)C2CC2)C1=O (single isomer, unassigned) [Example 366, 2-((2R,5R,6R)-6-(3-Chlorophenyl)-5-(4-chlorophenyl)-4-((S)-1-cyclopropyl-2-(N-(2-fluorophenyl)cyclopropanesulfonamido)ethyl)-3-oxomorpholin-2-yl)-N,N-dimethylacetamide or 2-((2S,5R,6R)-6-(3-chlorophenyl)-5-(4-chlorophenyl)-4-((S)-1-cyclopropyl-2-(N-(2-fluorophenyl)cyclopropanesulfonamido)ethyl)-3-oxomorpholin-2-yl)-N,N-dimethylacetamide]",< 1
10,"CC[C@@H](CS(=O)(=O)c1ccccc1Cl)N1C(=O)[C@@H](CC(=O)O)O[C@H](c2cccc(Cl)c2)[C@H]1c1ccc(Cl)cc1 (single isomer, unassigned) [Example 138, 2-((2R,5R,6R)-6-(3-chlorophenyl)-5-(4-chlorophenyl)-4-((S)-1-((2-chlorophenyl)sulfonyl)butan-2-yl)-3-oxomorpholin-2-yl)acetic acid or 2-((2S,5R,6R)-6-(3-chlorophenyl)-5-(4-chlorophenyl)-4-((S)-1-((2-chlorophenyl)sulfonyl)butan-2-yl)-3-oxomorpholin-2-yl)acetic acid]",29
11,"CNC(=O)C[C@H]1O[C@H](c2cccc(Cl)c2)[C@@H](c2ccc(Cl)cc2)N([C@H](CN(c2ccccc2F)S(=O)(=O)C2CC2)C2CC2)C1=O (single isomer, unassigned) [Example 364, 2-((2R,5R,6R)-6-(3-Chlorophenyl)-5-(4-chlorophenyl)-4-((S)-1-cyclopropyl-2-(N-(2-fluorophenyl)cyclopropanesulfonamido)ethyl)-3-oxomorpholin-2-yl)-N-methylacetamide or 2-((2S,5R,6R)-6-(3-chlorophenyl)-5-(4-chlorophenyl)-4-((S)-1-cyclopropyl-2-(N-(2-fluorophenyl)cyclopropanesulfonamido)ethyl)-3-oxomorpholin-2-yl)-N-methylacetamide]",< 1
12,"CC[C@@H](CS(=O)(=O)[C@H](C)C(C)C)N1C(=O)[C@H](CC(=O)O)O[C@H](c2cccc(Cl)c2)[C@H]1c1ccc(Cl)cc1 (single isomer, unassigned) [Example 284]",5
13,"Cc1nnc(C[C@H]2O[C@@H](c3cccc(Cl)c3)[C@@H](c3ccc(Cl)cc3)N([C@H](CN(c3ccccc3F)S(=O)(=O)C3CC3)C3CC3)C2=O)o1 (single isomer, unassigned) [Example 404, N-((S)-2-((2S,3R,6R)-2-(3-Chlorophenyl)-3-(4-chlorophenyl)-6-((5-methyl-1,3,4-oxadiazol-2-yl)methyl)-5-oxomorpholino)-2-cyclopropylethyl)-N-(2-fluorophenyl)cyclopropanesulfonamide or N-((S)-2-((2R,3R,6R)-2-(3-chlorophenyl)-3-(4-chlorophenyl)-6-((5-methyl-1,3,4-oxadiazol-2-yl)methyl)-5-oxomorpholino)-2-cyclopropylethyl)-N-(2-fluorophenyl)cyclopropanesulfonamide]",134
14,"C[C@H]1CCCN1S(=O)(=O)C[C@H](C1CC1)N1C(=O)[C@@](C)(CC(=O)O)O[C@H](c2cccc(Cl)c2)[C@H]1c1ccc(Cl)cc1 (single isomer, unassigned) [Example 337, 2-((2R,5R,6R)-6-(3-Chlorophenyl)-5-(4-chlorophenyl)-4-((S)-1-cyclopropyl-2-(((S)-2-methylpyrrolidin-1-yl)sulfonyl)ethyl)-2-methyl-3-oxomorpholin-2-yl)acetic acid or 2-((2S,5R,6R)-6-(3-chlorophenyl)-5-(4-chlorophenyl)-4-((S)-1-cyclopropyl-2-(((S)-2-methylpyrrolidin-1-yl)sulfonyl)ethyl)-2-methyl-3-oxomorpholin-2-yl)acetic acid]",50
15,"O=C(O)C[C@H]1OC(c2cccc(Cl)c2)C(c2ccc(Cl)cc2)N([C@H](CN(c2c(F)cccc2F)S(=O)(=O)C2CC2)C2CC2)C1=O (single isomer, unassigned) [Example 250]",< 1
16,"CC(C)[C@H](CN(c1ccccc1)S(=O)(=O)C1CC1)N1C(=O)[C@@H](CC(=O)O)O[C@H](c2cccc(Cl)c2)[C@H]1c1ccc(Cl)cc1 (single isomer, unassigned) [Example 193, 2-((2R,5R,6R)-6-(3-chlorophenyl)-5-(4-chlorophenyl)-4-((R)-3-methyl-1-(N-phenylcyclopropanesulfonamido)butan-2-yl)-3-oxomorpholin-2-yl)acetic acid or 2-((2S,5R,6R)-6-(3-chlorophenyl)-5-(4-chlorophenyl)-4-((R)-3-methyl-1-(N-phenylcyclopropanesulfonamido)butan-2-yl)-3-oxomorpholin-2-yl)acetic acid]",32
